These results are taken from ChEMBL document CHEMBL1155687, “Anthoptilides A-E, new Briarane diterpenes from the Australian sea pen Anthoptilum cf. kukenthali” (J Nat Prod, 2000).

The assay deals with T1, Adenosine receptor A1 (Rattus norvegicus, UniProt P25099).
T1 sequence (P25099 whole entry): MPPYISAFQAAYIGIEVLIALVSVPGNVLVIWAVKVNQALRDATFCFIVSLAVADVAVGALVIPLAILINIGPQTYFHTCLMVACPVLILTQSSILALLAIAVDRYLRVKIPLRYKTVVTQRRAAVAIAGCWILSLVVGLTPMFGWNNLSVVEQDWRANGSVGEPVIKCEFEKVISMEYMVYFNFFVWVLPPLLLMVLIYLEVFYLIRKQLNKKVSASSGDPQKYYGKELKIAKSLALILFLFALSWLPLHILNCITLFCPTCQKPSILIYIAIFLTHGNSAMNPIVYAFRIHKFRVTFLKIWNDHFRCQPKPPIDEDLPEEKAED
Nature of the assay: Displacement of [3H]DPCPX from adenosine A1 receptor in rat brain membrane. Type of assay: cell membranes. A general note: Displacement assays read how much labelled ligand stays bound in the presence of the test substance.

A word on the IC50: it is the point on the concentration scale where inhibition reaches its midpoint. High values mean lower potency, low ones higher potency.

Regarding `CCC(=O)O[C@@H]1CC/C(C)=C\[C@@H]2OC(=O)C(C)=C2C[C@H]2C(C)=C[C@H](OC(C)=O)[C@H](OC(C)=O)[C@]12C` [ANTHOPTILIDE E], the IC50 was found to be 490 µM.

`CC(=O)O[C@H]1C(=O)C=C(C)[C@@H]2CC3=C(C)C(=O)O[C@H]3/C=C(/C)CC[C@@H](OC(=O)C(C)C)[C@]21C` [ANTHOPTILIDE B]: the IC50 came out at 45 µM. This IC50 is about 11-fold lower than that of the molecule before.

Molecule `CCC(=O)O[C@@H]1CC/C(C)=C\[C@@H]2OC(=O)C(C)=C2C[C@H]2C(C)=CC(=O)[C@H](OC(C)=O)[C@]12C` [ANTHOPTILIDE C] registered an IC50 of 3.1 µM.

The molecule `C/C=C(\C)C(=O)O[C@@H]1CC/C(C)=C\[C@@H]2OC(=O)C(C)=C2C[C@H]2C(C)=CC(=O)[C@H](OC(C)=O)[C@]12C` [ANTHOPTILIDE A] showed a half-maximal inhibitory concentration (IC50) of 420 µM.

`CC(=O)O[C@H]1C(=O)C=C(C)[C@@H]2CC3=C(C)C(=O)O[C@H]3/C=C(/C)CC[C@@H](OC(=O)c3ccccc3)[C@]21C` [ANTHOPTILIDE D] yielded an IC50 of 500 µM.
